Article PMC4827351 (Chemical Science, 2015)

Experiments:
E. coli ATCC 25922 = assay: Cuvette-based bacterial agglutination assay; format: cell-based, Escherichia coli; conditions: n = 3
Excerpt: We previously reported a simple cuvette-based in vitro agglutination assay that enables time-dependent monitoring of agglutination of viable bacteria by HD6.[15] We employed this assay to further characterize the trypsin-dependent activity of proHD6 on cultured bacterial cells (Fig. 4a and b). […] In these assays, we defined the “supernatant” as the culture solution in the top portion of the cuvette and the “re-suspension” as the mixture that results from agitating the entire culture after the 6 h incubation period.[15] We observed an ≈1.5-fold log reduction in CFU mL^–1 for the “supernatant” from cultures treated with combination of trypsin and proHD6 relative to the no-peptide control (Fig. 4c). Following “re-suspension”, the total CFU mL^–1 in the cuvette was indistinguishable from that of either the untreated control culture or the bacterial culture treated with proHD6.
Fig. 4 Bacterial agglutination assays for native and cleaved proHD6. (a) Agglutination of E. coli ATCC 25922 and L. monocytogenes ATCC 19115 in 50% MHB treated with proHD6 in the absence and presence of 0.4 μM trypsin or HD6 (control). (b) Representative images of cuvettes containing E. coli ATCC 25922 or L. monocytogenes ATCC 19115 after incubation with 20 μM peptides for 2 h at room temperature. (c) Plots of colony forming units (CFU mL^–1) of E. coli ATCC 25922 and L. monocytogenes ATCC 19115 after treatment with 20 μM peptides for 6 h (mean ± SDM, n = 3). Supernatant is defined as the clarified medium solution in the top portion of the culture and resuspension is defined as the mixture after thoroughly agitating the heterogeneous solution.
Stock solutions (50 μL) of HD6 and proHD6 (0, 50, 100, and 200 μM; 10× concentrations) were prepared in sterile Milli-Q water. If trypsin was required, aliquots of a 1 mg mL^–1 stock solution of TPCK-treated trypsin (Worthington) prepared in sterile Milli-Q water were added to solutions of proHD6 to afford a final trypsin concentration of 0.01 mg mL^–1. The assays were then conducted following the reported procedure.[15] […]

[1] = Sedimentation equilibrium analytical ultracentrifugation; format: physicochemical; conditions: 10 mM sodium phosphate; for MW (sedimentation equilibrium, SEDPHAT): pH 7.4, 20 °C, global fit
Description: Sedimentation equilibrium (SE) experiments were performed to determine the molecular weight of proHD6. The proHD6 samples were prepared as described in the SV experiments with modification. In a typical set of experiments, proHD6 solutions in Milli-Q water (≈100 μL) prepared in microcentrifuge tubes were lyophilized to dryness. An aliquot (110 μL, pre-filtered, 0.22 μm filter) of 10 mM sodium phosphate buffer adjusted to pH 7.4 was added to each tube to afford solutions with varying concentrations of proHD6 (30, 60, and 120 μM) and transferred to AUC sample cells. The pH of each solution was measured to confirm that each solution remained at pH 7.4. Based on the sedimentation coefficients obtained from the SV experiments, equilibrium profiles were obtained at rotor speeds of 30 000, 36 000, and 42 000 rpm. Once equilibrium was established, two scans with five replicates were recorded. The absorption wavelength for optical detection was 280 nm, and the instrument was maintained at 20 °C.
The details of the experimental setup and data analysis are reported elsewhere.[52] SEDNTERP[53] was employed to calculate the buffer viscosity (η), buffer density (ρ), and the partial specific volume (value of proHD6 at 20 °C) as described in the SV section. The molecular weight of proHD6 was determined by global fitting of the multispeed equilibrium data across all loading concentrations at pH 7.4 using SEDPHAT.[31] The Species Analysis model with mass conservation was employed for data analysis. The bottom of the sample sector was assigned as a floating parameter. To further evaluate whether each least-squares curve-fitting procedure converged to a global minimum, the alternate methods of Simplex, Marquardt–Levenberg, and simulated annealing were employed to assess any change in the global reduced chi-squared value.
Table S5. Molecular weight fitting of SE data for proHD6 by using SEDPHAT.a 95% Confidence Standard Global Reduced Critical Chi-Squared
Sample MW (Da) Intervalb Deviationb Chi-Squared Valuec […]
a All samples were in 10 mM sodium phosphate, pH 7.4. Global fitting used partial specific volume (v) at 20 °C, a solvent density ( ρ) of 0.99967 g/mL, and a solvent viscosity (η) of 1.0061 cP. Viscosity units are in centipoise (cP) (1 poise = 1 gŸ[…] cm-1Ÿ[…]s-1). b Calculated from 1000 iterations of Monte-Carlo analysis. c Calculated at a 95% confidence level.

In the case of “EPLQAEDDPLQAKAYEADAQEQRGANDQDFAVSFAEDASSSLRALGSTRAFTCHCRRSCYSTEYSYGTCTVMGINHRFCCL (disulfide (positions not given here)) [proHD6, 81-residue propeptide of human α-defensin 6, recombinant, from His6-SUMO-proHD6]”, the “total CFU mL^-1 after re-suspension versus untreated control culture or culture treated with proHD6” value (E. coli ATCC 25922; 20 µM proHD6 + trypsin, 6 h, entire culture agitated) is reported as “indistinguishable”, the “agglutination of bacterial culture in cuvette, with trypsin” value (E. coli ATCC 25922; proHD6 + 0.4 µM (0.01 mg/mL) trypsin, 10^8 CFU mL^-1, 50% MHB, room temperature) is reported as “bacterial agglutination and sedimentation occurred” and the “agglutination of bacterial culture in cuvette” value (E. coli ATCC 25922; proHD6 up to 20 µM, no trypsin, 10^8 CFU mL^-1, 50% MHB, 6 h, room temperature) is reported as “remained homogeneous”. The “molecular weight in solution (sedimentation equilibrium, global analysis)” value ([1]; pH 7.4, 20 °C, 30, 60, 120 µM proHD6, 30 000/36 000/42 000 rpm, A280, SEDPHAT, SD ±230 Da, 95% interval 15 059-15 946 Da) was 15 549 Da, the “MW (sedimentation equilibrium, SEDPHAT)” value ([1]; Sample 1) was 15176 Da and the “MW (sedimentation equilibrium, SEDPHAT)” value ([1]; Sample 2) was 15351 Da. The “MW (sedimentation equilibrium, SEDPHAT)” value ([1]; Sample 3) was 15549 Da.
